Our source for the IC50 values is US10669242B2 (priority 2016, dated 2020).

One may read the IC50 as the point on the concentration scale where inhibition reaches its midpoint.

Molecules are shown by their SMILES. Where a name gives a salt, the structure may show the parent alone.

In this test the target is T1, recombinant glucosyltransferase domain of C. difficile Toxin B/TcdB (Clostridioides difficile, UniProt P18177).
T1 construct: 6-His (C); purchased R&D Systems 6246-GT
T1 sequence (P18177 1-543): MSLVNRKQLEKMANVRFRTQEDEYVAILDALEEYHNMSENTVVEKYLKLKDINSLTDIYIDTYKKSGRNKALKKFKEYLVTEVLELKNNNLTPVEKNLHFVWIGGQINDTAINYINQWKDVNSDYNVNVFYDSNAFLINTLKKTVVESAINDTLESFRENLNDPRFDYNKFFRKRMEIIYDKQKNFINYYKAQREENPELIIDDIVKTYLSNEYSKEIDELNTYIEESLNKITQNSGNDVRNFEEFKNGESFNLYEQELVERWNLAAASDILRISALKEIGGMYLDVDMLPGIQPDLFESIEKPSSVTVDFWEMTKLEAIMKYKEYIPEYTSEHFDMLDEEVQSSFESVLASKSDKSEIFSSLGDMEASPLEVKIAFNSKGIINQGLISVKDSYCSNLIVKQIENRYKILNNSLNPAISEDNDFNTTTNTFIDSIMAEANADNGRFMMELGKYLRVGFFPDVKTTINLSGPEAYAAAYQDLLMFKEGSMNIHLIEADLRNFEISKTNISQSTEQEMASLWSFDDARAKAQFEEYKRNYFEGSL
Nature of the test: biochemical.
On to `C[C@@H]1C(=O)Nc2cc(Cl)ccc2C(=O)N1Cc1ccc(C(=O)Nc2ccc(N3CCN(C(=O)OC(C)(C)C)CC3)cn2)cc1` [Example 4bg, (R)-tert-butyl 4-(6-(4-((8-chloro-3-methyl-2,5-dioxo-2,3-dihydro-1H-benzo[e][1,4]diazepin-4(5H)-yl)methyl)benzamido)pyridin-3-yl)piperazine-1-carboxylate], for which the IC50 is 100 to 999 nM.
Consider `N#Cc1ccc2c(c1)NC(=O)[C@@H](Cc1cccnc1)N(Cc1ccc(C(=O)Nc3ccccn3)cc1)C2=O` [Example 14a, (R)-4-((8-Cyano-2,5-dioxo-3-(pyridin-3-ylmethyl)-2,3-dihydro-1H-benzo[e][1,4]diazepin-4(5H)-yl)methyl)-N-(pyridin-2-yl)benzamide Hydrochloride], for which the IC50 was less than 100 nM.
In the case of `O=C(Nc1ccccn1)c1ccc(CN2C(=O)c3ccc(Cl)cc3NC(=O)[C@@H]2Cc2ccccn2)cc1` [Example 4aq, (S)-4-((8-chloro-2,5-dioxo-3-(pyridin-2-ylmethyl)-2,3-dihydro-1H-benzo[e][1,4]diazepin-4(5H)-yl)methyl)-N-(pyridin-2-yl)benzamide], the IC50 was less than 100 nM.
As to `Cc1cncc(NC(=O)c2ccc(CN3C(=O)c4ccc(Cl)cc4NC(=O)[C@H]3C)cc2)n1` [Example 5o, (R)-4-((8-chloro-3-methyl-2,5-dioxo-2,3-dihydro-1H-benzo[e][1,4]diazepin-4(5H)-yl)methyl)-N-(6-methylpyrazin-2-yl)benzamide], the IC50 is 100 to 999 nM.
As for `Cc1cnc(NC(=O)c2ccc(CN3C(=O)c4ccc(Cl)cc4NC(=O)[C@H]3Cc3ccccn3)cc2)s1` [Example 4bw, (R)-4-((8-chloro-2,5-dioxo-3-(pyridin-2-ylmethyl)-2,3-dihydro-1H-benzo[e][1,4]diazepin-4(5H)-yl)methyl)-N-(5-methylthiazol-2-yl)benzamide], the half-inhibitory concentration (IC50) is less than 100 nM.
Turning to `Cc1cc(C(=O)c2ccc(CN3C(=O)c4ccc(Cl)cc4NC(=O)[C@H]3Cc3ccccn3)cc2)c2nccn2c1` [Example 31e], the IC50 lay in the range of 1000 to 10000 nM.
With `COc1cnc(NC(=O)c2ccc(S(=O)(=O)N3Cc4ccc(Cl)cc4NC(=O)[C@H]3Cc3ccccn3)cc2)nc1` [Example 19h, (R)-4-((8-chloro-2-oxo-3-(pyridin-2-ylmethyl)-2,3-dihydro-1H-benzo[e][1,4]diazepin-4(5H)-yl)sulfonyl)-N-(5-methoxypyrimidin-2-yl)benzamide], the IC50 is less than 100 nM.
For the compound `COc1ccc(NC(=O)c2ccc(CN3C(=O)c4ccc(Cl)cc4NC(=O)[C@H]3Cc3ccccn3)cc2)nc1` [Example 4ao, (R)-4-((8-chloro-2,5-dioxo-3-(pyridin-2-ylmethyl)-2,3-dihydro-1H-benzo[e][1,4]diazepin-4(5H)-yl)methyl)-N-(5-methoxypyridin-2-yl)benzamide], the IC50 is less than 100 nM.
For `Cc1cnc(NC(=O)c2ccc(CN3C(=O)c4ccc(Cl)cc4NC(=O)[C@H]3Cc3ccccn3)cc2)nc1` [Example 5l, (R)-4-((8-chloro-2,5-dioxo-3-(pyridin-2-ylmethyl)-2,3-dihydro-1H-benzo[e][1,4]diazepin-4(5H)-yl)methyl)-N-(5-methylpyrimidin-2-yl)benzamide], the IC50 was less than 100 nM.
Take `O=C(Nc1ccccn1)c1ccc(CN2C(=O)c3ccc(Cl)cc3NC(=O)C2CC2CCOCC2)cc1` (stereo not drawn) [Example 35e]: the IC50 was 1000 to 10000 nM.
Next, `CC(=O)Nc1ccc(-c2cc(CN3C(=O)c4ccc(Cl)cc4NC(=O)[C@H]3Cc3ccccn3)ccc2C(=O)O)cc1` [Example 8n, (R)-4′-acetamido-5-((8-chloro-2,5-dioxo-3-(pyridin-2-ylmethyl)-2,3-dihydro-1H-benzo[e][1,4]diazepin-4(5H)-yl)methyl)-[1,1′-biphenyl]-2-carboxylic acid]: 100 to 999 nM; `Cc1ccnc(C(=O)c2ccc(CN3C(=O)c4ccc(Cl)cc4NC(=O)[C@H]3Cc3ccccn3)cc2)c1` [Example 11d, (R)-8-chloro-4-(4-(4-methylpicolinoyl)benzyl)-3-(pyridin-2-ylmethyl)-3,4-dihydro-1H-benzo[e][1,4]diazepine-2,5-dione]: less than 100 nM.
`CNC(=O)c1ccc(-c2cc(CN3C(=O)c4ccc(Cl)cc4NC(=O)[C@H]3Cc3ccccn3)ccc2C(=O)O)cc1` [Example 8o, (R)-5-((8-chloro-2,5-dioxo-3-(pyridin-2-ylmethyl)-2,3-dihydro-1H-benzo[e][1,4]diazepin-4(5H)-yl)methyl)-4′-(methylcarbamoyl)-[1,1′-biphenyl]-2-carboxylic acid]: the IC50 was in the range of 1000 to 10000 nM.
On to `O=C1Nc2cc(Cl)ccc2C(=O)N(Cc2ccc3c(c2)CN(c2ccccn2)C3=O)[C@@H]1Cc1ccccn1` [Example 49d], for which the IC50 was in the range of 100 to 999 nM.
On to `O=C(O)c1ccc(CN2C(=O)c3ccc(Cl)cc3NC(=O)[C@H]2Cc2ccc(F)cc2)cc1` [Example 3d], for which the IC50 fell in the range of 1000 to 10000 nM.
Turning to `O=C(Nc1ccc(CN2C(=O)c3ccc(Cl)cc3NC(=O)[C@H]2Cc2ccccn2)cc1)c1ccncn1` [Example 27c], the half-inhibitory concentration (IC50) fell in the range of 100 to 999 nM.
Turning to `C[C@@H]1C(=O)Nc2cc(Cl)ccc2C(=O)N1Cc1ccc(C(=O)Nc2cc3ccccc3cn2)cc1` [Example 4bb, (R)-4-((8-chloro-3-methyl-2,5-dioxo-2,3-dihydro-1H-benzo[e][1,4]diazepin-4(5H)-yl)methyl)-N-(isoquinolin-3-yl)benzamide], the IC50 lay within 100 to 999 nM.
Next, `Cn1ccnc1C(=O)Nc1ccc(CN2C(=O)c3ccc(Cl)cc3NC(=O)[C@H]2Cc2ccccn2)cc1` [Example 27i]: 100 to 999 nM; `COc1ccc(NC(=O)c2ccc(CN3C(=O)c4ccc(Cl)cc4NC(=O)[C@H]3C)cc2)nc1` [Example 4ba, (R)-4-((8-chloro-3-methyl-2,5-dioxo-2,3-dihydro-1H-benzo[e][1,4]diazepin-4(5H)-yl)methyl)-N-(5-methoxypyridin-2-yl)benzamide]: 100 to 999 nM; `O=C(Nc1ccc(N2CCOCC2)cn1)c1ccc(CN2C(=O)c3ccc(Cl)cc3NC(=O)[C@H]2Cc2ccccn2)cc1` [Example 4av, (R)-4-((8-chloro-2,5-dioxo-3-(pyridin-2-ylmethyl)-2,3-dihydro-1H-benzo[e][1,4]diazepin-4(5H)-yl)methyl)-N-(5-morpholinopyridin-2-yl)benzamide]: less than 100 nM.
The result for `O=C(O)c1ccc(CN2C(=O)c3ccc([N+](=O)[O-])cc3NC(=O)[C@H]2Cc2cccnc2)cc1` [Example 2i] reads 1000 to 10000 nM; that for `Cc1cnc(NC(=O)c2ccc(CN3C(=O)c4ccc(Cl)cc4NC(=O)[C@H]3Cc3cnccn3)cc2)nc1` [Example 5z, 4-((8-chloro-2,5-dioxo-3-(pyrazin-2-ylmethyl)-2,3-dihydro-1H-benzo[e][1,4]diazepin-4(5H)-yl)methyl)-N-(5-methylpyrimidin-2-yl)benzamide], less than 100 nM.
On to `O=C(Nc1ccccn1)c1ccc(CN2C(=O)c3ccccc3NC(=O)[C@H]2Cc2cccnc2)cc1` [Example 35g], for which the 50% inhibitory concentration (IC50) lay within 100 to 999 nM.
For the compound `O=C(Nc1ccc(CN2C(=O)c3ccc(Cl)cc3NC(=O)[C@H]2Cc2ccccn2)cc1)c1cccnc1O` [Example 27a, (R)—N-(4-((8-Chloro-2,5-dioxo-3-(pyridin-2-ylmethyl)-2,3-dihydro-1H-benzo[e][1,4]diazepin-4(5H)-yl)methyl)phenyl)-2-hydroxynicotinamide], the IC50 was in the range of 1000 to 10000 nM.
For the compound `O=C(O)c1c(Cl)cc(CN2C(=O)c3ccc(Cl)cc3NC(=O)[C@H]2Cc2ccccn2)cc1Cl` [Example 7c, (R)-2,6-dichloro-4-((8-chloro-2,5-dioxo-3-(pyridin-2-ylmethyl)-2,3-dihydro-1H-benzo[e][1,4]diazepin-4(5H)-yl)methyl)benzoic acid], the 50% inhibitory concentration (IC50) was 1000 to 10000 nM.
With `C[C@@H]1C(=O)Nc2cc(Cl)ccc2C(=O)N1Cc1ccc(C(=O)Nc2ccc(C(F)(F)F)cn2)c(Br)c1` [Example 5ar, (R)-2-bromo-4-((8-chloro-3-methyl-2,5-dioxo-2,3-dihydro-1H-benzo[e][1,4]diazepin-4(5H)-yl)methyl)-N-(5-(trifluoromethyl)pyridin-2-yl)benzamide], the IC50 lay within 1000 to 10000 nM.
As for `O=C(Nc1cc(CN2C(=O)c3ccc(Cl)cc3NC(=O)[C@H]2Cc2ccccn2)ccc1C(=O)O)c1ccccn1` [Example 21a, (R)-4-((8-Chloro-2,5-dioxo-3-(pyridin-2-ylmethyl)-2,3-dihydro-1H-benzo[e][1,4]diazepin-4(5H)-yl)methyl)-2-(picolinamido)benzoic Acid], the half-maximal inhibitory concentration (IC50) was 1000 to 10000 nM.
In the case of `Cc1nnc(NC(=O)c2ccc(CN3C(=O)c4ccc(Cl)cc4NC(=O)[C@H]3Cc3ccccn3)cc2)[nH]1` [Example 4bj, (R)-4-((8-chloro-2,5-dioxo-3-(pyridin-2-ylmethyl)-2,3-dihydro-1H-benzo[e][1,4]diazepin-4(5H)-yl)methyl)-N-(5-methyl-4H-1,2,4-triazol-3-yl)benzamide], the half-maximal inhibitory concentration (IC50) is 1000 to 10000 nM.
For the compound `O=C1Nc2cc(Cl)ccc2C(=O)N(Cc2ccc3c(Nc4ccccn4)nccc3c2)[C@@H]1Cc1ccccn1` [Example 49e], the IC50 is less than 100 nM.
The result for `Cc1cnc(NC(=O)c2ccc(CN3C(=O)c4ccc(Cl)cc4NC(=O)[C@H]3Cc3ccccn3)cc2C)nc1` [Example 5ag, (R)-4-((8-chloro-2,5-dioxo-3-(pyridin-2-ylmethyl)-2,3-dihydro-1H-benzo[e][1,4]diazepin-4(5H)-yl)methyl)-2-methyl-N-(5-methylpyrimidin-2-yl)benzamide] reads less than 100 nM; that for `Cn1cc(-c2cc(CN3C(=O)c4ccc(Cl)cc4NC(=O)[C@H]3Cc3ccccn3)ccc2C(=O)O)cn1` [Example 8u, (R)-4-((8-chloro-2,5-dioxo-3-(pyridin-2-ylmethyl)-2,3-dihydro-1H-benzo[e][1,4]diazepin-4(5H)-yl)methyl)-2-(1-methyl-1H-pyrazol-4-yl)benzoic acid], 1000 to 10000 nM.
As for `C[C@@H]1C(=O)Nc2cc(Cl)ccc2C(=O)N1Cc1ccc(C(=O)Nc2ccc(C(F)(F)F)cn2)c(-c2ccc3c(c2)OCO3)c1` [Example 54a], the IC50 lay in the range of 1000 to 10000 nM.
Next, `CC(=O)Nc1cc(CN2C(=O)c3ccc(Cl)cc3NC(=O)[C@H]2Cc2ccccn2)ccc1C(=O)O` [Example 22a, (R)-2-Acetamido-4-((8-chloro-2,5-dioxo-3-(pyridin-2-ylmethyl)-2,3-dihydro-1H-benzo[e][1,4]diazepin-4(5H)-yl)methyl)benzoic Acid]: 100 to 999 nM.
